Reference: publication PMC9571063 (Molecules, 2022)
Like-named read-outs stand apart in the source and are kept apart here.

Tests used:
[1] = target: T1, ABL1(T315I)-nonphosphorylated (Homo sapiens, UniProt P00519, T315I); test: KINOMEscan; type: binding; conditions: read-out: Percent Control
T1 construct: purchased Eurofins DiscoverX KINOMEscan (scanMAX 468)

CSNK1G1 = target: T2, CSNK1G1 (Homo sapiens, UniProt Q9HCP0); test: KINOMEscan; type: binding; conditions: read-out: Percent Control
T2 construct: purchased Eurofins DiscoverX KINOMEscan (scanMAX 468)

EGFR(S752-I759del) = target: T3, EGFR(S752-I759del) (Homo sapiens, UniProt P00533, DEL752-759); test: KINOMEscan; type: binding; conditions: read-out: Percent Control
T3 construct: purchased Eurofins DiscoverX KINOMEscan (scanMAX 468)

EGFR(T790M) = target: T4, EGFR(T790M) (Homo sapiens, UniProt P00533, T790M); test: KINOMEscan; type: binding; conditions: read-out: Percent Control
T4 construct: purchased Eurofins DiscoverX KINOMEscan (scanMAX 468)

EPHA2 = target: T5, EPHA2 (Homo sapiens, UniProt P29317); test: KINOMEscan; type: binding; conditions: read-out: Percent Control
T5 construct: purchased Eurofins DiscoverX KINOMEscan (scanMAX 468)

FGFR3(G697C) = target: T6, FGFR3(G697C) (Homo sapiens, UniProt P22607, G697C); test: KINOMEscan; type: binding; conditions: read-out: Percent Control
T6 construct: purchased Eurofins DiscoverX KINOMEscan (scanMAX 468)

FLT3(K663Q) = target: T7, FLT3(K663Q) (Homo sapiens, UniProt P36888, K663Q); test: KINOMEscan; type: binding; conditions: read-out: Percent Control
T7 construct: purchased Eurofins DiscoverX KINOMEscan (scanMAX 468)

FRK = target: T8, FRK (Homo sapiens, UniProt P42685); test: KINOMEscan; type: binding; conditions: read-out: Percent Control
T8 construct: purchased Eurofins DiscoverX KINOMEscan (scanMAX 468)

HASPIN = target: T9, HASPIN (Homo sapiens, UniProt Q8TF76); test: KINOMEscan; type: binding; conditions: read-out: Percent Control
T9 construct: purchased Eurofins DiscoverX KINOMEscan (scanMAX 468)

HIPK1 = target: T10, HIPK1 (Homo sapiens, UniProt Q86Z02); test: KINOMEscan; type: binding; conditions: read-out: Percent Control
T10 construct: purchased Eurofins DiscoverX KINOMEscan (scanMAX 468)

IKK-alpha = target: T11, IKK-alpha (Homo sapiens, UniProt O15111); test: KINOMEscan; type: binding; conditions: read-out: Percent Control
T11 construct: purchased Eurofins DiscoverX KINOMEscan (scanMAX 468)

IKK-beta = target: T12, IKK-beta (Homo sapiens, UniProt O14920); test: KINOMEscan; type: binding; conditions: read-out: Percent Control
T12 construct: purchased Eurofins DiscoverX KINOMEscan (scanMAX 468)

IRAK3 = target: T13, IRAK3 (Homo sapiens, UniProt Q9Y616); test: KINOMEscan; type: binding; conditions: read-out: Percent Control
T13 construct: purchased Eurofins DiscoverX KINOMEscan (scanMAX 468)

LYN = target: T14, LYN (Homo sapiens, UniProt P07948); test: KINOMEscan; type: binding; conditions: read-out: Percent Control
T14 construct: purchased Eurofins DiscoverX KINOMEscan (scanMAX 468)

MARK4 = target: T15, MARK4 (Homo sapiens, UniProt Q96L34); test: KINOMEscan; type: binding; conditions: read-out: Percent Control
T15 construct: purchased Eurofins DiscoverX KINOMEscan (scanMAX 468)

MET = target: T16, MET (Homo sapiens, UniProt P08581); test: KINOMEscan; type: binding; conditions: read-out: Percent Control
T16 construct: purchased Eurofins DiscoverX KINOMEscan (scanMAX 468)

MET(Y1235D) = target: T17, MET(Y1235D) (Homo sapiens, UniProt P08581, Y1235D); test: KINOMEscan; type: binding; conditions: read-out: Percent Control
T17 construct: purchased Eurofins DiscoverX KINOMEscan (scanMAX 468)

MLK2 = target: T18, MLK2 (Homo sapiens, UniProt Q02779); test: KINOMEscan; type: binding; conditions: read-out: Percent Control
T18 construct: purchased Eurofins DiscoverX KINOMEscan (scanMAX 468)

MYLK2 = target: T19, MYLK2 (Homo sapiens, UniProt Q9H1R3); test: KINOMEscan; type: binding; conditions: read-out: Percent Control
T19 construct: purchased Eurofins DiscoverX KINOMEscan (scanMAX 468)

NDR1 = target: T20, NDR1 (Homo sapiens, UniProt Q15208); test: KINOMEscan; type: binding; conditions: read-out: Percent Control
T20 construct: purchased Eurofins DiscoverX KINOMEscan (scanMAX 468)

PHKG1 = target: T21, PHKG1 (Homo sapiens, UniProt Q16816); test: KINOMEscan; type: binding; conditions: read-out: Percent Control
T21 construct: purchased Eurofins DiscoverX KINOMEscan (scanMAX 468)

PIM1 = target: T22, PIM1 (Homo sapiens, UniProt P11309); test: KINOMEscan; type: binding; conditions: read-out: Percent Control
T22 construct: purchased Eurofins DiscoverX KINOMEscan (scanMAX 468)

RAF1 = target: T23, RAF1 (Homo sapiens, UniProt P04049); test: KINOMEscan; type: binding; conditions: read-out: Percent Control
T23 construct: purchased Eurofins DiscoverX KINOMEscan (scanMAX 468)

RIOK3 = target: T24, RIOK3 (Homo sapiens, UniProt O14730); test: KINOMEscan; type: binding; conditions: read-out: Percent Control
T24 construct: purchased Eurofins DiscoverX KINOMEscan (scanMAX 468)

RIPK1 = target: T25, RIPK1 (Homo sapiens, UniProt Q13546); test: KINOMEscan; type: binding; conditions: read-out: Percent Control
T25 construct: purchased Eurofins DiscoverX KINOMEscan (scanMAX 468)

RIPK2 = target: T26, RIPK2 (Homo sapiens, UniProt O43353); test: KINOMEscan; type: binding; conditions: read-out: Percent Control
T26 construct: purchased Eurofins DiscoverX KINOMEscan (scanMAX 468)

RIPK5 = target: T27, RIPK5 (Homo sapiens, UniProt Q6XUX3); test: KINOMEscan; type: binding; conditions: read-out: Percent Control
T27 construct: purchased Eurofins DiscoverX KINOMEscan (scanMAX 468)

ROS1 = target: T28, ROS1 (Homo sapiens, UniProt P08922); test: KINOMEscan; type: binding; conditions: read-out: Percent Control
T28 construct: purchased Eurofins DiscoverX KINOMEscan (scanMAX 468)

SRMS = target: T29, SRMS (Homo sapiens, UniProt Q9H3Y6); test: KINOMEscan; type: binding; conditions: read-out: Percent Control
T29 construct: purchased Eurofins DiscoverX KINOMEscan (scanMAX 468)

SRPK3 = target: T30, SRPK3 (Homo sapiens, UniProt Q9UPE1); test: KINOMEscan; type: binding; conditions: read-out: Percent Control
T30 construct: purchased Eurofins DiscoverX KINOMEscan (scanMAX 468)

STK16 = target: T31, STK16 (Homo sapiens, UniProt O75716); test: KINOMEscan; type: binding; conditions: read-out: Percent Control
T31 construct: purchased Eurofins DiscoverX KINOMEscan (scanMAX 468)

STK36 = target: T32, STK36 (Homo sapiens, UniProt Q9NRP7); test: KINOMEscan; type: binding; conditions: read-out: Percent Control
T32 construct: purchased Eurofins DiscoverX KINOMEscan (scanMAX 468)

SYK = target: T33, SYK (Homo sapiens, UniProt P43405); test: KINOMEscan; type: binding; conditions: read-out: Percent Control
T33 construct: purchased Eurofins DiscoverX KINOMEscan (scanMAX 468)

TAOK2 = target: T34, TAOK2 (Homo sapiens, UniProt Q9UL54); test: KINOMEscan; type: binding; conditions: read-out: Percent Control
T34 construct: purchased Eurofins DiscoverX KINOMEscan (scanMAX 468)

TGFBR1 = target: T35, TGFBR1 (Homo sapiens, UniProt P36897); test: KINOMEscan; type: binding; conditions: read-out: Percent Control
T35 construct: purchased Eurofins DiscoverX KINOMEscan (scanMAX 468)

YSK4 = target: T36, YSK4 (Homo sapiens, UniProt Q56UN5); test: KINOMEscan; type: binding; conditions: read-out: Percent Control
T36 construct: purchased Eurofins (KINOMEscan, DiscoverX)

Hs_CDK9/CyclinT = target: T37, Hs_CDK9/CyclinT (Homo sapiens, UniProt P50750); parameters: method as in ref 13 (a number printed in a supplementary file, which may have a reference list of its own: not looked up in the article's list); conditions: DB18, cited from earlier work
T37 construct: host or cells: Sf9 insect cells (baculovirus)

HuH7 = tested on: HuH7; parameters: method as in ref 14 (a number printed in a supplementary file, which may have a reference list of its own: not looked up in the article's list); conditions: DB18[a], footnote not given; read-out: Cytotoxic studies IC50 HuH7; cited from earlier work
Caco2 = tested on: Caco2; parameters: method as in ref 14 (a number printed in a supplementary file, which may have a reference list of its own: not looked up in the article's list); conditions: DB18[a], footnote not given; read-out: Cytotoxic studies IC50 Caco2; cited from earlier work

T37 sequence (P50750 whole entry): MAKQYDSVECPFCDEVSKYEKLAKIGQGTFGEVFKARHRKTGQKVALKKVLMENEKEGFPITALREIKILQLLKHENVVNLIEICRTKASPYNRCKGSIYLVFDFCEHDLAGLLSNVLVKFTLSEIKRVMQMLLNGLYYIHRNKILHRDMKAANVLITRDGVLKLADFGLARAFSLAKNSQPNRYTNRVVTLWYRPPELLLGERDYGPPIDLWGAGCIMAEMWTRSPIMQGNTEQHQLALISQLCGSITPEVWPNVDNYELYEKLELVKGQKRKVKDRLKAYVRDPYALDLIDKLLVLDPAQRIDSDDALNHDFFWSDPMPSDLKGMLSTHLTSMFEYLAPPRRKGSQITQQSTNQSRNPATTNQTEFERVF
T37 sequence (O60563 whole entry partner): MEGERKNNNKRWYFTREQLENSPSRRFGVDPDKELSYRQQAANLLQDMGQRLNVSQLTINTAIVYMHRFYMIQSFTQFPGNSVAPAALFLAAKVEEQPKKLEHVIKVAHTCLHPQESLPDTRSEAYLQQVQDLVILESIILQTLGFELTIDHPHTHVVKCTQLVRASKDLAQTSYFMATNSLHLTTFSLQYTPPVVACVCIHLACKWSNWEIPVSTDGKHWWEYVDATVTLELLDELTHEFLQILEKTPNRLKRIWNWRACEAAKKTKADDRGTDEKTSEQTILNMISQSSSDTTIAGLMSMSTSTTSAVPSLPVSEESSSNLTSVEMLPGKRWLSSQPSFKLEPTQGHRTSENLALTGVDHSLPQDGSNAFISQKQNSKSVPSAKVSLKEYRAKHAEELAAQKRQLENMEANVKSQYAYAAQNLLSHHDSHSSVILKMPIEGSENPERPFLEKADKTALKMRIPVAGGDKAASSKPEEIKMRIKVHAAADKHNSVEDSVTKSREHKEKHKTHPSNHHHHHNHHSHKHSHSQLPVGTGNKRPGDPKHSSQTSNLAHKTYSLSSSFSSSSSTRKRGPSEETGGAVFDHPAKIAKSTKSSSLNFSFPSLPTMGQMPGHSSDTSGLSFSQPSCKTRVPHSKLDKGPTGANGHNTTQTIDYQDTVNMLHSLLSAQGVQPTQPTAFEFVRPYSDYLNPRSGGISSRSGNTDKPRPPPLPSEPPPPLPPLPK
T24 sequence (O14730 whole entry): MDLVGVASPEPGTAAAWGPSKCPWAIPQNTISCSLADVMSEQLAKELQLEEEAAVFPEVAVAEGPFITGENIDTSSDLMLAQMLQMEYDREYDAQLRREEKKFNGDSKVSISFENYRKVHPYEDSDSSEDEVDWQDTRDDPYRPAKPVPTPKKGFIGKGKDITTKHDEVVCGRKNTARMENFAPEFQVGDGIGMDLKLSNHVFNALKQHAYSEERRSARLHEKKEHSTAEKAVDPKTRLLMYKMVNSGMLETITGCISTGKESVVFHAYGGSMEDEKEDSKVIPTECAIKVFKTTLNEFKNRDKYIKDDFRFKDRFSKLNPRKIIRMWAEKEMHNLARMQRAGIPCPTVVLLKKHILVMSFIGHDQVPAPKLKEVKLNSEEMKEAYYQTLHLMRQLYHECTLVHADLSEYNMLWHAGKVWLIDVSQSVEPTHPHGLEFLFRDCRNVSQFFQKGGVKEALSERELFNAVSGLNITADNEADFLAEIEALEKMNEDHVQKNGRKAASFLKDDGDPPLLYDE
T15 sequence (Q96L34 whole entry): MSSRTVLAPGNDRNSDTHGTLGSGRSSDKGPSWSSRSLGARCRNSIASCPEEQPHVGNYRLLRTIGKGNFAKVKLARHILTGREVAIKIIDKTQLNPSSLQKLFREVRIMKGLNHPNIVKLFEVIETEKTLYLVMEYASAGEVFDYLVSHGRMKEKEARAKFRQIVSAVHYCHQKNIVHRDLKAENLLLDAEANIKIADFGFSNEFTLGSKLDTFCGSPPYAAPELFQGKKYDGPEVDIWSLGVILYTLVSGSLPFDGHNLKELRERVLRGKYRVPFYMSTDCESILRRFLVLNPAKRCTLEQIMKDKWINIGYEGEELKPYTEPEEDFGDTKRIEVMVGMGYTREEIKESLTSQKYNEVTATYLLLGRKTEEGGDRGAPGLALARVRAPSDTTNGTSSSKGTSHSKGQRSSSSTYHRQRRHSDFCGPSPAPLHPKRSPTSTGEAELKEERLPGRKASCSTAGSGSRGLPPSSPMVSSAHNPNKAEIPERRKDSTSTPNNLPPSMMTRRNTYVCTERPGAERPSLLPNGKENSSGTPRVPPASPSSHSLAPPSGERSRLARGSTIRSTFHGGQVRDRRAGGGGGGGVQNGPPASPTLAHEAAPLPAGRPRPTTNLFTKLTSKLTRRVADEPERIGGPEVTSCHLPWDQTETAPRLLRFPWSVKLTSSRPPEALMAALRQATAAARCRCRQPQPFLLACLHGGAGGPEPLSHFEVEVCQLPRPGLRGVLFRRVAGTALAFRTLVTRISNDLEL
T27 sequence (Q6XUX3 whole entry): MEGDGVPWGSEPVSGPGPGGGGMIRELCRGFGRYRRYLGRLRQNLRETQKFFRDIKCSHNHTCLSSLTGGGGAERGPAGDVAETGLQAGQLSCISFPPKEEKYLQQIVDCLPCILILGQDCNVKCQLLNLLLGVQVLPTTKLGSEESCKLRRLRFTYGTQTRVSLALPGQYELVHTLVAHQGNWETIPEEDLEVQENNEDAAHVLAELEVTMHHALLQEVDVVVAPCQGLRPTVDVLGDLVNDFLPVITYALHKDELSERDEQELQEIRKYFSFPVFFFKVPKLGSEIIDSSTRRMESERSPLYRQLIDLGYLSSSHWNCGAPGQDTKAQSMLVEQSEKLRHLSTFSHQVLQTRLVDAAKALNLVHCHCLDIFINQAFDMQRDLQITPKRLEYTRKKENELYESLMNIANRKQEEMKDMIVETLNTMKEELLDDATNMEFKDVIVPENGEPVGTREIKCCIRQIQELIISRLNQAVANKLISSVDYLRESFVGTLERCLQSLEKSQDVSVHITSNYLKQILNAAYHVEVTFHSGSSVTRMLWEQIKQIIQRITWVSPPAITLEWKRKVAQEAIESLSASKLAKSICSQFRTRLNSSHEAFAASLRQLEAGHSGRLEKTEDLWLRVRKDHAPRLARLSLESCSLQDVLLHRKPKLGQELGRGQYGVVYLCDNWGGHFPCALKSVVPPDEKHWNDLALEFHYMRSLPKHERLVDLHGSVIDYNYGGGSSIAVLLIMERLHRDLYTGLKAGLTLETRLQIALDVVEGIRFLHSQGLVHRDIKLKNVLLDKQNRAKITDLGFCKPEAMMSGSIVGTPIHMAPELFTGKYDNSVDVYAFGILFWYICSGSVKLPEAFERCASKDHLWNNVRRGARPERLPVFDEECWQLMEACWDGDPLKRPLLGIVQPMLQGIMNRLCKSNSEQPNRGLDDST
T13 sequence (Q9Y616 whole entry): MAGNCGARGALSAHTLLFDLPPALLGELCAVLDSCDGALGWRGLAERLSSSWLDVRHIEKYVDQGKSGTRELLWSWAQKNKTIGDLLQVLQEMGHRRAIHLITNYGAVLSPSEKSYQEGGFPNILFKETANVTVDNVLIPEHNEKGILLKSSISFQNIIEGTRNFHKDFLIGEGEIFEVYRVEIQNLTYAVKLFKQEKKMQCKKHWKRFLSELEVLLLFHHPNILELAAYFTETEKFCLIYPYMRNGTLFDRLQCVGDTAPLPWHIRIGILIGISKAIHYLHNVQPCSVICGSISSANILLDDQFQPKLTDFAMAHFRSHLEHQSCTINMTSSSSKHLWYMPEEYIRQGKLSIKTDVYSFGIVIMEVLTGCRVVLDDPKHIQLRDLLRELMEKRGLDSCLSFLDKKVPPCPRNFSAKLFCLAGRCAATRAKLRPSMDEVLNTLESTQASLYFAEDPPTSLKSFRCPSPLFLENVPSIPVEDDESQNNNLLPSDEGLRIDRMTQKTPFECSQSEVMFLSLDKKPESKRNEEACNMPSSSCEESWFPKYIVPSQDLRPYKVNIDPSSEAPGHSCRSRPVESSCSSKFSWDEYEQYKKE
T5 sequence (P29317 24-976): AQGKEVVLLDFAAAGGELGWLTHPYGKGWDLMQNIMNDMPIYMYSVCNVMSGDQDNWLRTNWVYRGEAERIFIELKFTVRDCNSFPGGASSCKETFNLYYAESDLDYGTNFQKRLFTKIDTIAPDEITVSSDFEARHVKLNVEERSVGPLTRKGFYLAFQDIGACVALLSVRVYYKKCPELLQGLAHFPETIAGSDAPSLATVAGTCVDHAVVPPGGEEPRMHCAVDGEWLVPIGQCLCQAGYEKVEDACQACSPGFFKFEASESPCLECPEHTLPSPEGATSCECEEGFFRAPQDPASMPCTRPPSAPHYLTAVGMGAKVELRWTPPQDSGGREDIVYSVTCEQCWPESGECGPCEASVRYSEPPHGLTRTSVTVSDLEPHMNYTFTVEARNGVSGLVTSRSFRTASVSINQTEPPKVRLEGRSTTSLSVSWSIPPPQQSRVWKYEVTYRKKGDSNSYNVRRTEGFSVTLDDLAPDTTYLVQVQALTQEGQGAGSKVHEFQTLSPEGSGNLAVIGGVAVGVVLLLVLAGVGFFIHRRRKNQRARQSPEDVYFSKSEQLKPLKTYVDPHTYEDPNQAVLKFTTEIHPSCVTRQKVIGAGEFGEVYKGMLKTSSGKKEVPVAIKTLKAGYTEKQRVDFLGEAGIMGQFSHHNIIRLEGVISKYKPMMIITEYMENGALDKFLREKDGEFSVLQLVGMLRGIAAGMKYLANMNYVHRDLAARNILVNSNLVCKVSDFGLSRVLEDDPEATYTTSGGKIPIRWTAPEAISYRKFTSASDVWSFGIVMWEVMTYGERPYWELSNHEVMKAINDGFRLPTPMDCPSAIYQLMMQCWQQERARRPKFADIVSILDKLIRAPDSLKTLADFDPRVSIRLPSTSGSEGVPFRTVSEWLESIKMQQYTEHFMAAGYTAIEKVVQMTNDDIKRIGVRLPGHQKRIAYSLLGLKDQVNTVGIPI

Cc1ccc(-n2cc(COc3cccc4cnc(Nc5cccc(Cl)c5)nc34)nn2)c([N+](=O)[O-])c1 [DB18]
remaining binding at 1 µM [1]: 89% | remaining binding at 1 µM (CSNK1G1): 100% | remaining binding at 1 µM (EGFR(S752-I759del)): 91% | remaining binding at 1 µM (EGFR(T790M)): 100% | remaining binding at 1 µM (EPHA2): 100% | remaining binding at 1 µM (FGFR3(G697C)): 97% | remaining binding at 1 µM (FLT3(K663Q)): 69% | remaining binding at 1 µM (FRK): 83% | remaining binding at 1 µM (HASPIN): 72% | remaining binding at 1 µM (HIPK1): 19% | remaining binding at 1 µM (IKK-alpha): 100% | remaining binding at 1 µM (IKK-beta): 100% | remaining binding at 1 µM (IRAK3): 59% | remaining binding at 1 µM (LYN): 93% | remaining binding at 1 µM (MARK4): 100% | remaining binding at 1 µM (MET): 95% | remaining binding at 1 µM (MET(Y1235D)): 100% | remaining binding at 1 µM (MLK2): 100% | remaining binding at 1 µM (MYLK2): 100% | remaining binding at 1 µM (NDR1): 89% | remaining binding at 1 µM (PHKG1): 100% | remaining binding at 1 µM (PIM1): 100% | remaining binding at 1 µM (RAF1): 100% | remaining binding at 1 µM (RIOK3): 100% | remaining binding at 1 µM (RIPK1): 100% | remaining binding at 1 µM (RIPK2): 98% | remaining binding at 1 µM (RIPK5): 100% | remaining binding at 1 µM (ROS1): 100% | remaining binding at 1 µM (SRMS): 98% | remaining binding at 1 µM (SRPK3): 100% | remaining binding at 1 µM (STK16): 41% | remaining binding at 1 µM (STK36): 100% | remaining binding at 1 µM (SYK): 97% | remaining binding at 1 µM (TAOK2): 98% | remaining binding at 1 µM (TGFBR1): 100% | remaining binding at 1 µM (YSK4): 34% | % of residual activity Hs_CDK9/CyclinT (Hs_CDK9/CyclinT; 1 µM): 90% | % of residual activity Hs_CDK9/CyclinT (Hs_CDK9/CyclinT; 10 µM): 54% | IC50 (HuH7): 25 µM | IC50 (Caco2): 37 µM
